# Experimental data taken from a melting point compilation (Tetko et al.; mined from patent text by program, amines drawn as free bases though some values may be those of a salt).
row,melting point,Compound
1,139 to 140 °C,NC(=S)C(F)(F)C[C@H]1CN(c2ccc(C3C=CS(=O)(=O)CC3)cc2)C(=O)O1 (stereo partly drawn)
2,130 to 133 °C,CCCCCCC(C)(Sc1cc(C(C)(C)C)c(O)c(C(C)(C)C)c1)Sc1cc(C(C)(C)C)c(O)c(C(C)(C)C)c1
3,261 to 263 °C,O=C(O)c1ccccc1NCCCn1c2ccc(O)cc2c2c3c(c(-c4ccccc4Cl)cc21)C(=O)NC3=O
4,197 to 199 °C,CCCCC(=O)Oc1ccc(-c2nc(-c3ccc(Cl)cc3)c(CC(=O)O)s2)cc1
5,213 °C,CSc1nc2ccc(Br)cc2c2nn(-c3ccc(C)cc3)c(=O)n12
6,153 to 156 °C,CN(C)Cc1[nH]c2ccccc2c1Cn1ccnc1
7,222 to 228 °C,COc1ccc(Nc2c([N+](=O)[O-])ccc(Cl)c2C(=O)O)cc1Cl
8,80 °C,CN(C)CCOc1cc(-c2ccccc2)nn1N
9,138 to 140 °C,Cc1nc(C(N)=O)cn1-c1ccc(Cl)cc1
10,142 to 143 °C,O=C(C(=Cc1ccc(F)cc1)S(=O)(=O)c1ccccc1)c1ccccc1
11,142 to 145 °C,Cc1ccc(Cl)cc1S(N)(=O)=O
12,179 to 181 °C,CCOC(=O)c1c(-c2ccncc2)[nH]c(-c2ccccc2)c1C
13,146 to 149 °C,CCOC(=O)C(C(=O)Nc1ccc(Br)cc1C)=S(C)C
14,181 to 183 °C,COc1cc2cnn(CCCl)c(=O)c2cc1OC
15,186 to 195 °C,COC(=O)c1cc(-c2ccc(-c3ccccc3)cc2)nn(CC(C)C)c1=O
16,138 to 140 °C,N#Cc1c(Cl)cccc1C=O
17,169 to 174 °C,Clc1ncnc2cc3c(cc12)OCCO3
18,81 to 82 °C,COc1ccc(S(=O)(=O)N(Cc2ccccc2)C(C(=O)NO)C(O)C(C)C)cc1 (stereo not drawn)
19,261 to 263 °C,O=CNNc1ccnc2c(NC(=O)c3c(Cl)cccc3Cl)cccc12
20,200 to 203 °C,Cc1ccc(OCc2ccccc2)c(C(=O)O)c1C(=O)O
21,217 to 220 °C,CC(C)(C)C(=O)N(NC(=O)c1ccccc1)C(C)(C)C
22,123 to 125 °C,CC(=O)c1ccc(OC(C)(C)C(=O)O)c(Cl)c1
23,174 to 176 °C,CC1(C)CC(c2ccc3ccccc3n2)c2cc(C#N)ccc2O1 (stereo not drawn)

row,melting point,Compound
1,135 to 137 °C,N#Cc1cc(C#N)cc(OC(C(=O)C2CC2)C(=O)C2CC2)c1
2,149 to 150 °C,Clc1ccc(Cn2cnc3ccc(Cl)nc32)c(Cl)c1
3,258 to 259 °C,COc1ccc(C(=O)Nc2cc(NC(=O)c3ccc(O)cc3)ccc2C)cc1OC
4,157 to 160 °C,OCC1OC(n2cnc3c(Nc4ccccc4)cc(Cl)nc32)C(O)C1O (stereo not drawn)
5,314 to 316 °C,O=c1c2c[nH]c3cccnc3c-2nn1-c1ccccc1
6,119 to 121 °C,Cc1cc(C)n(-c2ccc(N3CCOCC3)nn2)n1
7,139 to 141 °C,COc1cc(C=CC(=O)C(Cc2ccccc2)C(=O)C=Cc2ccc(O)c(OC)c2)ccc1O (stereo not drawn)
8,130 to 132 °C,C=CCOc1ccc(C2=NNC(=O)CC2)cc1
9,207 °C,O=C(O)COc1ccc2c(-c3ccc(Cl)cc3)noc2c1
10,83.7 to 85.9 °C,CC(=O)NC[C@H]1CN(c2ccc(-n3nccc3-c3cccnc3)c(F)c2)C(=O)O1
11,155 to 157 °C,C[Si](C)(C)/C=C/c1c(N)nc(-c2ccc(Cl)c(F)c2F)nc1C(=O)O
12,157 to 161 °C,CCS(=O)(=O)C1=C(C(=O)c2ccc(S(C)(=O)=O)cc2Cl)C(=O)CCC1
13,103 to 105 °C,CC(C)(C)c1ccc2c(c1)[C@H]1Cc3ccccc3[C@H]1N2 (relative stereo)
14,182 to 190 °C,C1=NC=C2CCNC=C12
15,224 to 226 °C,OCc1nc2ccc(Cl)nc2[nH]1
16,227 to 229 °C,c1ccc(-c2nnc(Nc3ccc4c(c3)ncn4-c3ccccc3)c3ccccc23)cc1
17,161 °C,CN(C)c1ncnc2c1c(-c1ccc([N+](=O)[O-])o1)nn2C
18,162 °C,CCCCc1nn2c(c1Cc1ccc(-c3ccccc3)c(C(=O)O)c1)CCCC2
19,86 to 87.5 °C,O=C(O)[C@H]1CCCN1C(=O)CCCc1ccccc1
20,167 °C,O=C(O)CCCCCCCn1c(-c2ccc(O)cc2)nc(-c2ccccc2)c1-c1ccccc1
21,64 to 65 °C,OC(CCc1ccc2c(c1)OCO2)C1CC1 (stereo not drawn)
22,106 to 109 °C,COC1(C)Oc2cccc(O)c2O1 (stereo not drawn)
23,177 to 179 °C,COc1ccc(-c2nc(Sc3ccncc3)[nH]c2-c2ccc(OC)cc2)cc1

row,melting point,Compound
1,220 to 223 °C,CCc1nn2c(c1Oc1cc(Cl)cc(Cl)c1)C(=O)NCC2
2,235 to 238 °C,Nc1nc(-n2cc(C(=O)O)c(=O)c3cc(F)c(N4CC(O)C4)c(Cl)c32)c(F)cc1F
3,87 to 89 °C,OC1(C(c2ccccc2F)n2cccc2)CCN(Cc2ccccc2)C1 (stereo not drawn)
4,294 °C,NS(=O)(=O)c1ccc(-c2noc(-c3cnn4c(C5CC5)cc(-c5ccc(Cl)cc5)nc34)n2)s1
5,138 °C,CC(SCc1cc2cc(Cl)ccc2n1S(=O)(=O)c1ccccc1)C(=O)O (stereo not drawn)
6,169 to 170 °C,C[C@@H](NC(=O)c1ccc(-c2ccc(Cl)cc2)s1)[C@](O)(Cn1cncn1)c1ccc(F)cc1F
7,125 to 128 °C,CN1CCN(c2cc(Sc3ccccc3)nc(-c3ccccc3)n2)CC1
8,79 °C,CCCCCCCCCCCCCCN(C)c1ccc(N)cc1C(=O)O
9,181 to 184 °C,CCCCCCCCCCCCc1c[nH]c2cc(C(=O)O)ccc12
10,125 to 127 °C,C=CCOCc1c(CN(C)C[C@@H](O)c2ccccn2)sc2c(=O)c(C(=O)NCc3ccc(Cl)cc3)cn(C)c12
11,115 to 118 °C,CC(Oc1ccc(Oc2ccc(Cl)cc2Cl)cc1)C(=O)N1CCCO1 (stereo not drawn)
12,108 to 111 °C,CCCCCCCCCCCCn1nnnc1Nc1ccccc1
13,174 to 176 °C,CCC(CC)OC(=O)c1ccc(C(=O)NS(=O)(=O)c2ccc(CCNC(=O)c3cc(OC)ccc3Cl)cc2)cn1
14,106 to 108 °C,CCC(CC)N(Cc1ccc(C(=O)OC)cc1)S(=O)(=O)c1ccc(C)cc1
15,112 °C,CN1C(C(=O)OC2CCCCC2)=C(O)c2ccccc2S1(=O)=O
16,94 to 96 °C,CCCCN1CCCC1=NC(=O)Nc1cccc(Cl)c1
17,206 to 208 °C,CCC1CCc2cc3c(cc2C1)C(=O)c1cccc(OC)c1C3=O (stereo not drawn)
18,98 to 100 °C,CCOC(=O)c1cnc2ccc(OC)nc2c1Cl
19,160 °C,O=C(c1ccccc1)c1cccc2c1CCC2C(=O)NO (stereo not drawn)
20,247 to 248 °C,O=C1CCC(=O)N1Cc1nc2sc3c(c2c(-c2ccc(OCc4ccccc4)cc2)c1Cl)CCNC3
21,125 to 128 °C,O=C1NCCN(C(=O)OCc2ccccc2)C1Cc1ccccc1 (stereo not drawn)
22,190 to 192 °C,CCOC(=O)C(=CNc1cc(O)cc(O)c1)C(=O)OCC
23,230 to 231 °C,CC(C)(C)c1ccc2oc(-c3ccc(C=Cc4ccc(-n5ncc(-c6ccccc6)n5)cc4)cc3)nc2c1

row,Compound,melting point
1,N#CCCN1C(=O)C(O)(c2cccc(Cl)c2)c2ccccc21 (stereo not drawn),149 to 150 °C
2,COc1ccc(CCN)cc1S(N)(=O)=O,164 to 167 °C
3,O=C1c2c(Cl)cccc2-n2cnc(-c3noc(CN4CCCCC4)n3)c2[C@@H]2CCN12,177 to 179 °C
4,CCCCn1nc(C(N)=O)cc1C,114 °C
